Holding throughout (settings): Cavia porcellus
Assay [1] deals with Ileum. Description: […] activity in longitudinal smooth muscle of guinea pig ileum assessed as inhibition of acetylcholine-induced contraction at 30 mg/L. It is filed as functional.
In assay [2] the test system is Ileum. The assay is described as follows: […] activity in longitudinal smooth muscle of guinea pig ileum assessed as inhibition of acetylcholine-induced contraction at 60 mg/L. It is filed as functional.
The subject of assay [3] is Ileum. The assay is described as follows: […] activity in longitudinal smooth muscle of guinea pig ileum assessed as inhibition of acetylcholine-induced contraction at 100 mg/L. The format is functional.
Assay [4] concerns Ileum. The assay is described as follows: […] activity in longitudinal smooth muscle of guinea pig ileum assessed as inhibition of acetylcholine-induced contraction. The format is functional, tissue-based.

Molecules are shown by their SMILES.

Broadly, the inhibition is the relative decrease from the control value, in per cent. For `CC(C)=CC(=O)C/C(C)=C/COc1ccc(CCN(C)C(=O)/C=C/S(C)(=O)=O)cc1` [METHYLGERAMBULLONE], the inhibition at 30 µg/mL in assay [1] came to 45.3%. Moreover, in assay [2], the inhibition at 60 µg/mL worked out at 70%. Further, in assay [3], the inhibition at 100 µg/mL was found to be 78.7%. Moreover, the Activity result in assay [4] was “Dose-dependent effect”.

Values taken from ChEMBL document CHEMBL1153162, “Total synthesis and biological evaluation of methylgerambullone” (2010).
